This is an account of results in PubChem BioAssay AID1259408 (Genetic Toxicology Data Bank (GENE-TOX), 2018).

Activity calls are given as the source filed them. The rule behind the calls is not given here.

In this data set the test system is GENE-TOX genotoxicity assays, various organisms and cells. The experiment in a line: GENE-TOX mutagenicity studies. Conditions: for call: Assay Type: In vivo carcinogenicity studies.
Where [1] appears, read: Species/Cell Type: Nonhuman, Assay Code: CCG+L, Evaluation Type: Evaluation A (Pre-1980).
Where [2] appears, read: Species/Cell Type: Salmonella typhimurium (one or more of the five standard strains: TA98, TA100, TA1535, TA1537, and TA1538), Assay Type: Histidine reverse gene mutation, Ames assay, Assay Code: SAL+*, Activation: With metabolic activation, Evaluation Type: Evaluation A (Pre-1980).
Where [3] appears, read: Species/Cell Type: Neurospora crassa, Assay Type: Forward gene mutation, Assay Code: NEF+, Evaluation Type: Evaluation A (Pre-1980).
Where [4] appears, read: Species/Cell Type: Salmonella typhimurium (one or more of the five standard strains: TA98, TA100, TA1535, TA1537, and TA1538), Assay Type: Histidine reverse gene mutation, Ames assay, Assay Code: SAL+, Evaluation Type: Evaluation A (Pre-1980).
[5] abbreviates: Species/Cell Type: Neurospora crassa, Assay Type: Aneuploidy, chromosome aberrations, Assay Code: NEN-, Evaluation Type: Evaluation A (Pre-1980).
[6] abbreviates: Species/Cell Type: Nonhuman, Assay Type: Sister-chromatid exchange (SCE) in vitro, Assay Code: SC2+D, Dose Response: With dose response, Evaluation Type: Evaluation B (Post-1980).
The mark [7] stands for this setting: Species/Cell Type: Nonhuman, Assay Type: Sister-chromatid exchange (SCE) in vitro, Assay Code: SC2-, Evaluation Type: Evaluation A (Pre-1980).
The mark [8] stands for this setting: Species/Cell Type: Nonhuman, Assay Type: Sister-chromatid exchange (SCE) in vitro, Assay Code: SC2T, Evaluation Type: Evaluation B (Post-1980).

Take `Cc1ccc2cc3c(ccc4ccccc43)c3c2c1CC3O` (stereo unspecified): the mutagenic call is “active; positive” (Species/Cell Type: Chinese hamster lung (V79) cells, Assay Type: Forward gene mutation at the HPRT or ouabain locus, Assay Code: V79+, Evaluation Type: Evaluation A (Pre-1980)) and “active; positive” under setting [2]. In addition, under setting [1], the call was “active; positive”.
`CCN(CC)CCn1nc2c3c(c(C)ccc31)Sc1cc(Cl)ccc1-2`: the mutagenic call was “inactive; negative” (Species/Cell Type: Drosophila melanogaster, Assay Type: Sex-linked recessive lethal gene mutation, Assay Code: SRL-, Evaluation Type: Evaluation A (Pre-1980)); “active; positive” (Species/Cell Type: Mouse lymphoma (L5178Y) cells, Assay Type: Forward gene mutation at the thymidine kinase (TK) locus, chromosome aberrations, Assay Code: L51+, Evaluation Type: Evaluation A (Pre-1980)); “active; positive” under setting [3]; “active; positive” under setting [2].
Regarding `CCCCNc1ccc(C(=O)OCCN(C)C)cc1`, for the setting “Species/Cell Type: Salmonella typhimurium (one or more of the five standard strains: TA98, TA100, TA1535, TA1537, and TA1538), Assay Type: Histidine reverse gene mutation, Ames assay, Assay Code: SALT, Evaluation Type: Evaluation A (Pre-1980)”, the mutagenic call is given as “no conclusion”.
Take `C=C(Cl)CCl`: under setting [4], the mutagenic call is “active; positive”.
On to `O=c1ccc(=O)[nH][nH]1`, for which the mutagenic call (Species/Cell Type: Allium cepa, Assay Type: Chromosome aberrations, Assay Code: ALC+, Evaluation Type: Evaluation A (Pre-1980)) is “active; positive”; the mutagenic call (Species/Cell Type: Arabidopsis species, Assay Type: Gene mutation, Assay Code: ARM-, Evaluation Type: Evaluation A (Pre-1980)) is “inactive; negative”; the mutagenic call (Species/Cell Type: Drosophila melanogaster, Assay Type: Sex-linked recessive lethal gene mutation, Assay Code: SRL+, Evaluation Type: Evaluation A (Pre-1980)) is “active; positive”; the mutagenic call (Species/Cell Type: Hordeum vulgare (barley), Assay Type: Chromosome aberrations, Assay Code: HOC+, Evaluation Type: Evaluation A (Pre-1980)) was “active; positive”; the mutagenic call (Species/Cell Type: Human lymphocytes, Assay Type: Sister-chromatid exchange (SCE) in vitro, Assay Code: SCL+D, Dose Response: With dose response, Evaluation Type: Evaluation B (Post-1980)) is “active; positive”; the mutagenic call (Species/Cell Type: Human, Assay Type: Sister-chromatid exchange (SCE) in vitro, Assay Code: SC1+D, Dose Response: With dose response, Evaluation Type: Evaluation B (Post-1980)) was “active; positive”. Moreover, the mutagenic call is “no conclusion” (Species/Cell Type: Mammalian polychromatic erythrocytes, Assay Type: Micronucleus test, chromosome aberrations, Assay Code: MNTT, Evaluation Type: Evaluation A (Pre-1980)); “inactive; negative” under setting [5]; “active; positive” under setting [6]; “inactive; negative” under setting [7]; “inactive; negative” (Species/Cell Type: Salmonella typhimurium (one or more of the five standard strains: TA98, TA100, TA1535, TA1537, and TA1538), Assay Type: Histidine reverse gene mutation, Ames assay, Assay Code: SAL-, Evaluation Type: Evaluation A (Pre-1980)); “active; positive” (Species/Cell Type: Vicia faba, Assay Type: Chromosome aberrations, Assay Code: VIC+D, Dose Response: With dose response, Evaluation Type: Evaluation A (Pre-1980)). For the same compound, the call (Species/Cell Type: Nonhuman, Assay Code: CCG-L, Evaluation Type: Evaluation A (Pre-1980)) was “inactive; negative”.
On to `COc1cc2c(c3oc(=O)c4c(c13)CCOC4=O)[C@@H]1C=CO[C@@H]1O2`, for which the mutagenic call runs as follows: (Species/Cell Type: Bacillus subtilis (H17 vs M45), Assay Type: Rec-assay, spot test, DNA effects (bacterial DNA repair), Assay Code: REW+, Evaluation Type: Evaluation A (Pre-1980)) “active; positive”; (Species/Cell Type: Human diploid fibroblasts, Assay Type: Unscheduled DNA synthesis (UDS) in vitro, DNA effects, Assay Code: UDH+, Evaluation Type: Evaluation A (Pre-1980)) “active; positive”; under setting [3], “active; positive”; (Species/Cell Type: Nonhuman, Assay Type: Sister-chromatid exchange (SCE) in vitro, Assay Code: SC2+D*, Activation: With metabolic activation, Dose Response: With dose response, Evaluation Type: Evaluation B (Post-1980)) “active; positive”; (Species/Cell Type: Rat primary hepatocytes, Assay Type: Unscheduled DNA synthesis (UDS) in vitro, DNA effects, Assay Code: UDP+, Evaluation Type: Evaluation A (Pre-1980)) “active; positive”; (Species/Cell Type: Saccharomyces cerevisiae, Assay Type: Mitotic recombination or gene conversion, Assay Code: YEC-, Evaluation Type: Evaluation A (Pre-1980)) “inactive; negative”. The mutagenic call under setting [2] is “active; positive”. Also, under setting [1], the call is “active; positive”.
On to `CC[C@@H](CO)NCCN[C@@H](CC)CO`, for which the mutagenic call (Species/Cell Type: Mammalian polychromatic erythrocytes, Assay Type: Micronucleus test, chromosome aberrations, Assay Code: MNT+U, Dose Response: Unconfirmed positive response, Evaluation Type: Evaluation B (Post-1980)) was “active; positive”.
Regarding `CC1=C(/C=C/C(C)=C/C=C/C(C)=C/C=O)C(C)(C)CCC1`, the mutagenic call under setting [8] is listed as “no conclusion”.
Consider `Nc1ccc([N+](=O)[O-])cc1O`, for which the mutagenic call was “inactive; negative” under setting [5]; “inactive; negative” (Species/Cell Type: Rodents, Sex: Male, Assay Type: Dominant lethal test, Assay Code: DLT-, Evaluation Type: Evaluation A (Pre-1980)); “active; positive” under setting [4].
Consider `O=C1c2c(O)cccc2Cc2cccc(O)c21`, for which the mutagenic call was “inactive; negative” (Species/Cell Type: Mammalian polychromatic erythrocytes, Assay Type: Micronucleus test, chromosome aberrations, Assay Code: MNT-, Evaluation Type: Evaluation B (Post-1980)) and “no conclusion” (Species/Cell Type: Saccharomyces cerevisiae, Assay Type: Mitotic recombination or gene conversion, Assay Code: YECT, Evaluation Type: Evaluation A (Pre-1980)).
For `CCC(C)c1ccccc1OC(=O)N(C)N=O` (stereo unspecified), the mutagenic call is “active; positive” (Species/Cell Type: Bacillus subtilis (H17 vs M45T), Assay Type: Rec-assay, spot test, DNA effects (bacterial DNA repair), Assay Code: REX+, Evaluation Type: Evaluation A (Pre-1980)) and “active; positive” (Species/Cell Type: Escherichia coli WP2, Assay Type: Tryptophan reverse gene mutation, Assay Code: WP2+, Evaluation Type: Evaluation A (Pre-1980)).
Turning to `[Cl-].[Cl-].[NH2-].[NH2-].[NH2-].[Pt+2]`, the mutagenic call (Species/Cell Type: Chinese hamster ovary (CHO) cells, Assay Type: Forward gene mutation at the HPRT locus, Assay Code: CHO+, Evaluation Type: Evaluation B (Post-1980)) was “active; positive”.
Regarding `Nc1nc2n[nH]nc2c(=O)[nH]1`, the mutagenic call under setting [5] was “inactive; negative”.
Consider `CC[C@]1(O)C[C@@H]2CN(CCc3c([nH]c4ccccc34)[C@@](C(=O)OC)(c3cc4c(cc3OC)N(C)[C@H]3[C@@](O)(C(=O)OC)[C@H](OC(C)=O)[C@]5(CC)C=CCN6CC[C@]43[C@@H]65)C2)C1`, for which the mutagenic call by setting is: (Species/Cell Type: Mammalian polychromatic erythrocytes, Assay Type: Micronucleus test, chromosome aberrations, Assay Code: MNT+, Evaluation Type: Evaluation A (Pre-1980)) “active; positive”; (Species/Cell Type: Mammalian polychromatic erythrocytes, Assay Type: Micronucleus test, chromosome aberrations, Assay Code: MNT+, Evaluation Type: Evaluation B (Post-1980)) “active; positive”; (Species/Cell Type: Mouse, Sex: Male, Assay Type: Sperm morphology, Assay Code: SPI+, Evaluation Type: Evaluation A (Pre-1980)) “active; positive”; under setting [5], “inactive; negative”.
For the compound `C=[N+]=[N-]`, the mutagenic call is, setting by setting: (Species/Cell Type: Neurospora crassa, Assay Type: Reverse gene mutation, Assay Code: NER+, Evaluation Type: Evaluation A (Pre-1980)) “active; positive”; (Species/Cell Type: Saccharomyces cerevisiae, Assay Type: Reverse gene mutation, Assay Code: YER+, Evaluation Type: Evaluation A (Pre-1980)) “active; positive”. Moreover, the call under setting [1] was “active; positive”.
Regarding `OCc1ccco1`, the mutagenic call is recorded as “no conclusion” (Species/Cell Type: Human lymphocytes, Assay Type: Sister-chromatid exchange (SCE) in vitro, Assay Code: SCLT, Evaluation Type: Evaluation B (Post-1980)) and “no conclusion” (Species/Cell Type: Human, Assay Type: Sister-chromatid exchange (SCE) in vitro, Assay Code: SC1T, Evaluation Type: Evaluation B (Post-1980)).
Take `c1cncc(C2=NCCC2)c1`: the mutagenic call under setting [8] is recorded as “no conclusion”.
Regarding `c1ccc2ncccc2c1`, the mutagenic call was “active; positive” under setting [6], “inactive; negative” under setting [7] and “active; positive” under setting [2].
As to `CCC(=O)Oc1ccc2c(c1)CC[C@@H]1[C@@H]2CC[C@]2(C)[C@@H](OC(=O)CC)CC[C@@H]12`, under “Species/Cell Type: Rat, Sex: Male, Assay Type: Sperm morphology, Assay Code: SPA+, Evaluation Type: Evaluation A (Pre-1980)”, the mutagenic call was “active; positive”.
Take `Cc1cccc2ccc3c4ccccc4ccc3c12`: the mutagenic call under setting [2] was “active; positive”.
As for `COc1cc(/C=N/NC(=O)COc2ccc(Br)cc2CN(C)C)ccc1O`, the mutagenic call (Species/Cell Type: Saccharomyces cerevisiae, Assay Type: Reverse gene mutation, Assay Code: YERT, Evaluation Type: Evaluation A (Pre-1980)) was “no conclusion”.
As for `CC(Br)Br`, the mutagenic call runs as follows: (Species/Cell Type: Drosophila melanogaster, Assay Type: Sex-linked recessive lethal gene mutation, Assay Code: SRLT, Evaluation Type: Evaluation A (Pre-1980)) “no conclusion”; (Species/Cell Type: Escherichia coli polA (W3119 vs P3478), Assay Type: Rec-assay, DNA effects (bacterial DNA repair), Assay Code: RE1+, Evaluation Type: Evaluation A (Pre-1980)) “active; positive”; (Species/Cell Type: Tradescantia species, Assay Type: Gene mutation, Assay Code: TRM-, Evaluation Type: Evaluation A (Pre-1980)) “inactive; negative”.
Take `OCC(S)CS` (stereo unspecified): the mutagenic call (Species/Cell Type: Escherichia coli polA (W3119 vs P3478), Assay Type: Rec-assay, DNA effects (bacterial DNA repair), Assay Code: RE1-, Evaluation Type: Evaluation A (Pre-1980)) was “inactive; negative”.
